Measurements reported in US20220117921A1, “PHARMACEUTICAL COMBINATIONS FOR THE TREATMENT OF PAIN” (IMUNEKS FARMA ILAC SANAYI VE TICARET A.S., priority 2018, published 2022).

Tested on: female Albino Wistar rats
Assay: Hot plate test (heat induced pain model)
Assay type: in vivo, rat
Conditions: comparison between groups

`CC(C(=O)O)c1ccc(-c2ccccc2)c(F)c1` (stereo not shown) [FBP, Flurbiprofen] was tested, and the “analgesic effect in the hot plate test (in words)” value was “lowest analgesic effect compared to all the other groups except the placebo group”.
